# Reference: ChEMBL document CHEMBL5055643, “Sophoraflavanone G Resensitizes ABCG2-Overexpressing Multidrug-Resistant Non-Small-Cell Lung Cancer Cells to Chemotherapeutic Drugs” (J Nat Prod, 2021)
# The source made the active and inactive calls. The calls are words filed in the database; no cut-off is given here.
# Assays:
# HEK293 [1] = assay: Chemo-sensitizing activity against ABCG2-overexpressing human HEK293/482R cells assessed as reversal fold at 1 uM measured after 72 hrs in presence of mitoxatrone by CCK8 assay relative to control; format: functional
# KB-V1 [2] = assay: Chemo-sensitizing activity against ABCB1-overexpressing human KB-V1 cells assessed as reversal fold at 5 uM measured after 72 hrs in presence of paclitaxel by CCK8 assay relative to control; format: functional
# HEK293 [3] = assay: Chemo-sensitizing activity against human HEK293 cells assessed as reversal fold at 2 uM measured after 72 hrs in presence of SN-38 by CCK8 assay relative to control; format: functional
# A549 [4] = assay: Chemo-sensitizing activity against human A549 cells assessed as reversal fold at 5 uM measured after 72 hrs in presence of mitoxantrone by CCK8 assay relative to control; format: functional
# NCI/ADR-RES [5] = assay: Chemo-sensitizing activity against ABCB1-overexpressing human NCI/ADR-RES cells assessed as reversal fold at 1 uM measured after 72 hrs in presence of vincristine by CCK8 assay relative to control; format: functional
# A549 [6] = assay: Chemo-sensitizing activity against human A549 cells assessed as reversal fold at 2 uM measured after 72 hrs in presence of mitoxantrone by CCK8 assay relative to control; format: functional
# KB-V1 [7] = assay: Chemo-sensitizing activity against ABCB1-oveexpressing human KB-V1 cells assessed as reversal fold at 1 uM measured after 72 hrs in presence of colchicine by CCK8 assay relative to control; format: functional
# NCI/ADR-RES [8] = assay: Chemo-sensitizing activity against ABCB1-overexpressing human NCI/ADR-RES cells assessed as reversal fold at 2 uM measured after 72 hrs in presence of paclitaxel by CCK8 assay relative to control; format: functional
# [9] = Cytotoxicity against ABCG2-overexpressing human HEK293/482R cells assessed as cell viability at 1 to 5 uM measured after 72 hrs by CCK8 assay; format: ADME, cell-based; details: ABCG2-overexpressing HEK293/482R cells, dose 1-5 µM, read-out: Activity
# [10] = Cytotoxicity against becatecarin-selected ABCG2-overexpressing human A549/Bec150 cells assessed as cell viability at 1 to 5 uM measured after 72 hrs by CCK8 assay; format: ADME, cell-based; details: dose 1-5 µM, read-out: Activity
# KB-V1 [11] = assay: Chemo-sensitizing activity against ABCB1-overexpressing human KB-V1 cells assessed as reversal fold at 5 uM measured after 72 hrs in presence of vincristine by CCK8 assay relative to control; format: functional
# KB 3-1 [12] = assay: Chemo-sensitizing activity against human KB 3-1 cells assessed as reversal fold at 5 uM measured after 72 hrs in presence of colchicine by CCK8 assay relative to control; format: functional
# KB 3-1 [13] = assay: Chemo-sensitizing activity against human KB 3-1 cells assessed as reversal fold at 1 uM measured after 72 hrs in presence of vincristine by CCK8 assay relative to control; format: functional
# [14] = Cytotoxicity against human HEK293 cells assessed as cell viability at 1 to 5 uM measured after 72 hrs by CCK8 assay; format: cell-based; details: dose 1-5 µM, read-out: Activity
# HEK293 [15] = assay: Chemo-sensitizing activity against ABCB1-overexpressing human HEK293/MDR19 cells assessed as reversal fold at 1 uM measured after 72 hrs in presence of colchicine by CCK8 assay relative to control; format: functional
# OVCAR-8 [16] = assay: Chemo-sensitizing activity against human OVCAR-8 cells assessed as reversal fold at 5 uM measured after 72 hrs in presence of vincristine by CCK8 assay relative to control; format: functional
# HEK293 [17] = assay: Chemo-sensitizing activity against human HEK293 cells assessed as reversal fold at 2 uM measured after 72 hrs in presence of colchicine by CCK8 assay relative to control; format: functional
# HEK293 [18] = assay: Chemo-sensitizing activity against human HEK293 cells assessed as reversal fold at 1 uM measured after 72 hrs in presence of topotecan by CCK8 assay relative to control; format: functional
# HEK293 [19] = assay: Chemo-sensitizing activity against human HEK293 cells assessed as reversal fold at 5 uM measured after 72 hrs in presence of vincristine by CCK8 assay relative to control; format: functional
# OVCAR-8 [20] = assay: Chemo-sensitizing activity against human OVCAR-8 cells assessed as reversal fold at 5 uM measured after 72 hrs in presence of colchicine by CCK8 assay relative to control; format: functional
# HEK293 [21] = assay: Chemo-sensitizing activity against human HEK293 cells assessed as reversal fold at 2 uM measured after 72 hrs in presence of vincristine by CCK8 assay relative to control; format: functional
# HEK293 [22] = assay: Chemo-sensitizing activity against ABCB1-overexpressing human HEK293/MDR19 cells assessed as reversal fold at 5 uM measured after 72 hrs in presence of vincristine by CCK8 assay relative to control; format: functional
# A549 [23] = assay: Chemo-sensitizing activity against becatecarin-selected ABCG2-overexpressing human A549/Bec150 cells assessed as reversal fold at 1 uM measured after 72 hrs in presence of topotecan by CCK8 assay relative to control; format: functional
# NCI-H460 [24] = assay: Chemo-sensitizing activity against mitoxantrone-selected ABCG2-overexpressing human NCI-H460/MX20 cells assessed as reversal fold at 2 uM measured after 72 hrs in presence of SN-38 by CCK8 assay relative to control; format: functional
# NCI/ADR-RES [25] = assay: Chemo-sensitizing activity against ABCB1-overexpressing human NCI/ADR-RES cells assessed as reversal fold at 5 uM measured after 72 hrs in presence of vincristine by CCK8 assay relative to control; format: functional
# HEK293 [26] = assay: Chemo-sensitizing activity against ABCB1-overexpressing human HEK293/MDR19 cells assessed as reversal fold at 2 uM measured after 72 hrs in presence of vincristine by CCK8 assay relative to control; format: functional
# HEK293 [27] = assay: Chemo-sensitizing activity against ABCG2-overexpressing human HEK293/482R cells assessed as reversal fold at 5 uM measured after 72 hrs in presence of SN-38 by CCK8 assay relative to control; format: functional
# NCI/ADR-RES [28] = assay: Chemo-sensitizing activity against ABCB1-overexpressing human NCI/ADR-RES cells assessed as reversal fold at 1 uM measured after 72 hrs in presence of colchicine by CCK8 assay relative to control; format: functional
# A549 [29] = assay: Cytotoxicity against human A549 cells assessed as reduction in cell viability measured after 72 hrs by CCK8 assay; format: cell-based; details: A549, 72 h
# NCI-H460 [30] = assay: Effect on ABCG2 protein expression in mitoxantrone-selected ABCG2-overexpressing human NCI-H460/MX20 cells at 1 to 5 uM incubated for 72 hrs by immunoblot analysis; format: functional, cell-based; details: dose 1-5 µM
# A549 [31] = assay: Chemo-sensitizing activity against human A549 cells assessed as reversal fold at 1 uM measured after 72 hrs in presence of topotecan by CCK8 assay relative to control; format: functional
# HEK293 [32] = assay: Chemo-sensitizing activity against human HEK293 cells assessed as reversal fold at 5 uM measured after 72 hrs in presence of paclitaxel by CCK8 assay relative to control; format: functional
# ABCG2 = assay: Resistance factor, ratio of IC50 for mitoxantrone-selected ABCG2-overexpressing human NCI-H460/MX20 cells to IC50 for human NCI-H460 cells; format: ADME; details: read-out: Ratio IC50
# HEK293 [33] = assay: Chemo-sensitizing activity against ABCB1-overexpressing human HEK293/MDR19 cells assessed as reversal fold at 1 uM measured after 72 hrs in presence of vincristine by CCK8 assay relative to control; format: functional
structure (smiles),measurement,setting,value
C=C(C)[C@H](CC=C(C)C)Cc1c(O)cc(O)c2c1O[C@H](c1ccc(O)cc1O)CC2=O [SOPHORAFLAVANONE G],fold change (FC),HEK293 [1],2.6
same,fold change (FC),KB-V1 [2],1.6
same,fold change (FC),HEK293 [3],0.9
same,fold change (FC),A549 [4],1.8
same,fold change (FC),NCI/ADR-RES [5],1
same,fold change (FC),A549 [6],1.6
same,fold change (FC),KB-V1 [7],0.9
same,fold change (FC),NCI/ADR-RES [8],1.1
same,"viability at 72 h, up to 5 µM",[9],> 90%
same,"viability at 72 h, up to 5 µM",[10],> 90%
same,fold change (FC),KB-V1 [11],1.3
same,fold change (FC),KB 3-1 [12],1.1
same,fold change (FC),KB 3-1 [13],1.1
same,"viability at 72 h, 5 µM",[14],> 90%
same,fold change (FC),HEK293 [15],0.8
same,fold change (FC),OVCAR-8 [16],1.7
same,fold change (FC),HEK293 [17],0.9
same,fold change (FC),HEK293 [18],0.9
same,fold change (FC),HEK293 [19],0.9
same,fold change (FC),OVCAR-8 [20],1.1
same,fold change (FC),HEK293 [21],0.6
same,fold change (FC),HEK293 [22],2.2
same,fold change (FC),A549 [23],1.7
same,fold change (FC),NCI-H460 [24],3.7
same,fold change (FC),NCI/ADR-RES [25],1.1
same,fold change (FC),HEK293 [26],0.9
same,fold change (FC),HEK293 [27],6.4
same,fold change (FC),NCI/ADR-RES [28],0.9
same,IC50,A549 [29],26.2 µM
same,Activity,NCI-H460 [30],inactive
same,fold change (FC),A549 [31],1.1
same,fold change (FC),HEK293 [32],1.2
same,selectivity ratio,ABCG2,0.8
same,fold change (FC),HEK293 [33],0.7
